Data as given in patent US20080261870A1, “Use of the Pro-Peptide Domain of Lysyl Oxidase as a Therapeutic Agent” (priority 2004, published 2008).

Columns and labels:
RS485 cells [1] = assay: Growth curves of RS485 cells (crystal violet staining); assay type: cell-based; details: for decrease of growth rate: linear regression of log of absorbance vs time
Excerpt: Effect of suramin on RS485 cell phenotype. Suramin is a polysulfonated naphthylurea, initially used in the treatment of trypanosomiasis and onchocerciasis (Sullivan et al., 1997). Its anti-cancer activity was later identified, and suramin has been introduced into clinical trials for various forms of cancer (La Rocca et al., 1990(a); La Rocca et al., 1990(b); Song et al., 2001; Small et al., 2000; Garcia-Schurmann et al., 1999). Suramin interrupts autocrine growth factor pathways by inhibiting the binding of growth factors to their receptors (Sullivan et al., 1997; Zanghi et al., 2000; Fukumoto et al., 2000; Mietz et al., 1998; Coffey et al., 1987). Treatment of c-Ha-ras-transformed NIH 3T3 cells (RS485 cell line) with suramin leads to the induction of lysyl oxidase (Palamakumbura et al., 2003). Here we investigated the effects of suramin on the rate of growth and morphology of RS485 cells, as an initial measure of cell phenotype. Cells were plated in 6-well plates and cultured for 24 hours and then grown in the continuous presence of 0, 100, 125, or 150 μM suramin. As control, the growth of phenotypically normal NIH 3T3 cells in the absence of suramin was analyzed at the same time. Cell growth was determined by daily crystal violet staining of replicate wells. RS485 cells grew more rapidly than NIH 3T3 cells, as expected (Chang et al., 1982). […] The growth rate of RS485 cells treated with 150 μM suramin was similar to that of NIH 3T3 cells.
BAPN-mediated inhibition of lysyl oxidase enzyme activity fails to prevent phenotypic reversion induced by suramin. It has generally been assumed, although never directly tested, that lysyl oxidase dependent phenotypic reversion and tumor suppressor activity depends on its enzyme activity. To directly test the role of lysyl oxidase enzyme activity, we measured the effects of the lysyl oxidase inhibitor, BAPN (Tang et al., 1983), on the phenotypic changes in RS485 cells following treatment with 150 μM suramin. We have previously shown that suramin induces lysyl oxidase activity by about 2.5-fold (Palamakumbura et al., 2003). RS485 cell growth was assessed in the absence or presence of either 150 μM suramin or 400 μM BAPN, or a combination of both 150 μM suramin and 400 μM BAPN.
(§1) Growth curves. To study cell growth rates, cells were plated in 6-well plates at a density of 35,000 cells/well and were grown in complete medium containing 10% FBS, as described above. Additions of suramin or β-aminopropionitrile (BAPN), when appropriate, were initiated 24 hours after plating. Media were changed every three days in the continuous presence of suramin or BAPN, as indicated for each experimental design in the Results section. Cell density was determined in triplicate every day by crystal violet staining, as described (Kueng et al., 1989; Gillies et al., 1986). Cells were fixed with 10% formalin in PBS, washed with PBS, and then stained for 30 minutes with 0.1% crystal violet at room temperature with shaking. Unbound dye was then removed by washing with water until washes were colorless. Bound dye was then eluted with 10% acetic acid, and quantitated by measuring the absorbance at 590 nm. For quantitative analyses of growth rates, the logarithmic value of absorbance vs time was plotted±standard deviation and the rates were calculated by linear regression analyses. In addition, data were plotted as total absorbance +/−SE vs time. Experiments were performed three times each with consistent findings.

RS485 cells [2] = assay: Cell cycle analysis (FACS, propidium iodide) of RS485 cells treated with suramin; assay type: cell-based; details: 2 days
Method: We next determined the effects of suramin on cell cycle progression of RS485 cell cultures. […] The proportions of cells in G1 and S phases in cultures treated with 150 μM suramin are nearly identical to untreated phenotypically normal NIH 3T3 cells (Table I). Thus, treatment with 150 μM suramin changed the morphology, cell cycle, and growth rate of RS485 cells resulting in a more normal phenotype.
(§2) Cell cycle analysis. RS485, NIH 3T3 and PR4 cells were plated on 100 mm plates and were grown until confluent with 0 or 150 μM suramin. Cells (1.5−2×10^6) were then trypsinized, washed with PBS and fixed by washing with ice-cold 70% ethanol. Cells were stained with propidium iodide (50 μg/ml) in PBS containing 2% FBS and was analyzed by flow cytometry using a FACScan flow cytometry with CELLQUEST acquisition and analysis software (Becton Dickinson Co, Bedford, Mass.).
RS485 cells were grown in the presence of 0, 100, or 150 μM suramin for 2 days. Alternatively, NIH 3T3 cells were grown in the absence of suramin, as control. Cells (1.5−2×10^6) were fixed with 70% ethanol and stained with propidium iodide and analyzed by flow cytometry. Data shown are the averages ±SD of experiments performed three times.

[3] = tested on: transfected RS485 cell clones; assay: Cell cycle analysis of anti-sense lysyl oxidase and empty vector transfected RS485 cell clones; assay type: cell-based; details: 150 μM suramin, 24 hours
Method: Inhibition of lysyl oxidase expression reduces phenotypic reversion induced by suramin. […] To determine that the suramin-induced phenotypic changes depend upon lysyl oxidase expression, we generated stable anti-sense lysyl oxidase transfected RS485 cell clones. Nine anti-sense lysyl oxidase transfected clones and six empty vector transfected clones were generated and grown in the presence and absence of 150 μM suramin, and after 24 hours, cells were fixed and subjected to cell cycle analysis. Non-transfected RS485 cells were analyzed as an additional control. Differences in the percentage of cells in G1 and S phase occurred as a function of suramin treatment.
as §2
Stable transfection of RS485 cells with an anti-sense lysyl oxidase expression vector. Cells were grown in 100 mm cell culture dishes. At approximately 70% confluence, they were transfected with the anti-sense murine lysyl oxidase expression vector pCLO3 (Giampuzzi et al., 2001) (20 μg DNA/plate) using the calcium phosphate precipitation method (Graham et al., 1973). As a control, RS485 cells were transfected with empty vector (pcDNA3). The transfected cells were selected using G418 (geneticin) at a final concentration of 400 μg/ml in the medium. Colonies were isolated from anti-sense lysyl oxidase and empty vector transfected RS485 cells using cloning cylinders (Southern et al., 1982) and cultured in 400 μg/ml G418. Cells were then plated onto 100 mm plates (250,000 cells/plate) without G418 and treated with 0 or 150 μM suramin. After 24 hours, cells were prepared for cell cycle and Northern analysis as described above.

lysyl oxidase mRNA = assay: Northern blot analysis of lysyl oxidase mRNA in transfected RS485 clones; assay type: cell-based, mouse; details: 150 μM suramin, 24 hours, normalized to 18S rRNA
Method: To confirm that lysyl oxidase expression is actually diminished by anti-sense lysyl oxidase transfection, the ability of 150 μM suramin to induce low steady state mRNA levels of lysyl oxidase in clones was assessed after 24 hours of treatment by Northern blot analysis with normalization to 18S rRNA signals. Suramin treatment led to an average 8-fold increase in lysyl oxidase mRNA levels in the six empty vector-transfected clones assayed, consistent with previous studies on non-transfected RS485 cells (Palamakumbura et al., 2003). In contrast, an average 1.8-fold increase in lysyl oxidase mRNA levels occurred in the nine anti-sense lysyl oxidase transfected clones, as shown by Northern blot analysis. Thus, the induction of steady state lysyl oxidase mRNA levels by suramin is inhibited by the anti-sense lysyl oxidase transfection, as expected.
RNA isolation and Northern blot analysis. Total RNA was isolated using the RNeasy —RNA isolation kit (Qiagen, Valencia, Calif.). Ten μg samples of denatured RNA were electrophoresed on a 1% agarose gel containing […]. Gels were transferred in 10×SSC by capillary blotting overnight to Gene Screen nylon membranes (Perkin Elmer Life Science, Boston, Mass.). […] Autoradiograms were assessed and normalized by densitometric scanning on a Versa Doc Model 3000 Gel Documentation System and Quantity One Software (BioRad, Hercules, Calif.). […]

lysyl oxidase activity = details: previously shown (Palamakumbura et al., 2003); cited from earlier work
PR4 cells = assay: Growth curves and morphology of PR4 cells; assay type: cell-based; details: 400 μM BAPN
Method: (§3) If lysyl oxidase enzyme activity were required for the normal phenotype of PR4 cells, then BAPN would cause re-transformation. Thus, growth curves were generated for PR4 cells in the presence of 0 or 400 μM BAPN.
as §1, with “Experiments were performed three times each with consistent findings.” left out

lysyl oxidase = molecular target: T1, lysyl oxidase (Mus musculus, UniProt P28301); assay: Lysyl oxidase enzyme activity in PR4 cell culture media (tritiated tropoelastin substrate); assay type: biochemical
T1 construct: endogenous in cells; conditioned serum-free medium
T1 sequence (P28301 163-411): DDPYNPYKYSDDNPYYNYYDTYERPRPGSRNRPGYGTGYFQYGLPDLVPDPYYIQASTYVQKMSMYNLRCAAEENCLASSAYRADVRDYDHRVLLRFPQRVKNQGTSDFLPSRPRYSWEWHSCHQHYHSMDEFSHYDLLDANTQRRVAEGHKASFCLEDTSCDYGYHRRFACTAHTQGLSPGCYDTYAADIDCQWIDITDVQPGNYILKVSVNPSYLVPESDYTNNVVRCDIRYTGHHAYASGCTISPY
Method: as §3
Lysyl oxidase enzyme activity. PR4 cells were plated in 100 mm cell culture plates and then grown and re-fed every two days as described above in the constant presence of 0, 200 and 400 μM BAPN for seven days until visually confluent. Cells were then re-fed with serum-free medium supplemented with 0.1% bovine serum albumin still in the constant presence or absence of BAPN. After 24 hours conditioned 0.3 ml aliquots of media samples were assayed in quadruplicate using a tritiated recombinant human tropoelastin as substrate as previously described (Bedell-Hogan et al., 1993). Incubations were performed at […] for 90 minutes (Hong et al., 1999) and data were expressed as total cpm released +/−SE per culture.

[4] = tested on: ras-transformed fibroblasts; assay: Growth in soft agar of ras-transformed fibroblasts with ectopic lysyl oxidase expression, with BAPN; assay type: cell-based
Excerpt: It has now been determined that the ability of lysyl oxidase to revert the phenotype of ras-transformed fibroblasts depends substantially on the pro-peptide domain and not on lysyl oxidase enzyme activity. Since diminished lysyl oxidase expression in some way contributes to the transformed phenotype, it had generally been assumed that lysyl oxidase enzyme activity is related to the tumor suppressor activity of lysyl oxidase, and, therefore, that diminished lysyl oxidase activity promotes the transformed phenotype. […] The lack of effect of BAPN on lysyl oxidase-dependent phenotype control is interesting. […] Given that BAPN is an irreversible inhibitor of lysyl oxidase (Tang et al., 1983), it follows that both extracellular and intracellular lysyl oxidase activity are susceptible to inhibition by BAPN.

[5] = anti-sense lysyl oxidase transfected clones
[6] = empty vector transfected clones

For `Cc1ccc(C(=O)Nc2ccc(S(=O)(=O)O)c3cc(S(=O)(=O)O)cc(S(=O)(=O)O)c23)cc1NC(=O)c1cccc(NC(=O)Nc2cccc(C(=O)Nc3cc(C(=O)Nc4ccc(S(=O)(=O)O)c5cc(S(=O)(=O)O)cc(S(=O)(=O)O)c45)ccc3C)c2)c1` [suramin], the “decrease of growth rate” value (RS485 cells [1]; 100 μM suramin) was 38%, the “decrease of growth rate” value (RS485 cells [1]; 125 μM suramin) was 49% and the “morphology of RS485 cells” value (RS485 cells [1]; 150 μM suramin) was “flatter and contact inhibited”. The “effect on growth rate of RS485 cells” value (RS485 cells [1]; 150 μM suramin (BAPN experiment)) was “decreased the growth rate”, the “decrease of growth rate” value (RS485 cells [1]; 150 μM suramin) was 56% and the G1 % (RS485 cells [2]; 100 μM suramin) was 59.4 ± 1.3%. The “G2, M %” value (RS485 cells [2]; 100 μM suramin) was 19.1 ± 7.9%, the S % (RS485 cells [2]; 100 μM suramin) was 21.5 ± 2.4% and the G1 % (RS485 cells [2]; 150 μM suramin) was 67.4 ± 0.2%. For the same compound, the “G2, M %” value (RS485 cells [2]; 150 μM suramin) was 13.6 ± 1.9%, the S % (RS485 cells [2]; 150 μM suramin) was 19.0 ± 1.7% and the “decrease in S phase” value [3, 5] was 6.9%. The “increase in percentage of cells in G1 phase” value [3, 5] was 10.6%, the “decrease of average number of cells in S phase” value [3, 6] was 13.5% and the “increase of average number of cells in G1” value [3, 6] was 20.8%. The “average increase in lysyl oxidase mRNA levels” value (lysyl oxidase mRNA; nine anti-sense lysyl oxidase transfected clones) was 1.8 fold, the “average increase in lysyl oxidase mRNA levels” value (lysyl oxidase mRNA; six empty vector-transfected clones) was 8 fold and the “induction of lysyl oxidase activity” value (lysyl oxidase activity) was “about 2.5 fold”.
In the case of `N#CCCN` [BAPN, β-aminopropionitrile], the “effect on suramin-mediated inhibition of RS485 cell growth” value (RS485 cells [1]; 150 μM suramin and 400 μM BAPN combined) is reported as “did not reverse or affect in any detectable way”, the “effect on growth rate of RS485 cells” value (RS485 cells [1]; 400 μM BAPN) is reported as “had no effect on the growth rate” and the “effect on growth rate of PR4 cells” value (PR4 cells) is reported as “did not affect the growth rate”. For the same compound, the “effect on morphology of PR4 cells” value (PR4 cells) was “did not change the morphology”, the “lysyl oxidase enzyme activity in medium” value (lysyl oxidase; PR4 cultures in continuous presence of 200 μM BAPN) was “no lysyl oxidase enzyme activity was detected” and the “lysyl oxidase enzyme activity in medium” value (lysyl oxidase; PR4 cultures in continuous presence of 400 μM BAPN) was “no lysyl oxidase enzyme activity was detected”. For the same compound, the “effect on ability of ectopic lysyl oxidase expression to prevent growth in soft agar” value [4] was “failed to block”.
